± gives the expanded uncertainty stated by the source.
Experiment: xn = mol fraction of the nth substance listed
Settings: Liquid, Vibrating tube method

CCCCCCCCCCCCCCCC [hexadecane] + CCCCCC
mass density [kg/m3]
Settings	100 kPa	1000 kPa	5000 kPa	10000 kPa	20000 kPa	30000 kPa	40000 kPa	50000 kPa	60000 kPa
298.15 K, x2 = 0.1985	759.7 ± 0.7	760.3 ± 0.7	763 ± 0.7	766.3 ± 0.7	772.3 ± 0.8	777.9 ± 0.8	783.2 ± 0.8	788.1 ± 0.9	–
298.15 K, x2 = 0.4136	744.4 ± 0.8	745.1 ± 0.7	748 ± 0.7	751.4 ± 0.8	757.8 ± 0.8	763.7 ± 0.8	769.2 ± 0.9	774.4 ± 0.9	779.5 ± 0.9
298.15 K, x2 = 0.5007	736.7 ± 0.8	737.5 ± 0.7	740.4 ± 0.7	744 ± 0.8	750.4 ± 0.8	756.5 ± 0.8	762.2 ± 0.9	767.5 ± 0.9	772.6 ± 1
298.15 K, x2 = 0.5966	726.9 ± 0.8	727.5 ± 0.7	730.6 ± 0.7	734.3 ± 0.8	741.1 ± 0.8	747.4 ± 0.8	753.2 ± 0.9	758.6 ± 0.9	763.9 ± 1
298.15 K, x2 = 0.7928	700.2 ± 0.7	700.8 ± 0.7	704.3 ± 0.8	708.5 ± 0.8	715.9 ± 0.8	722.7 ± 0.9	729 ± 0.9	734.8 ± 1	740.4 ± 1
323.15 K, x2 = 0.1985	742.3 ± 0.7	743.2 ± 0.7	746.2 ± 0.7	749.9 ± 0.8	756.7 ± 0.8	763 ± 0.8	768.7 ± 0.9	774.2 ± 0.9	779.4 ± 0.9
323.15 K, x2 = 0.4136	726.2 ± 0.8	727.1 ± 0.7	730.4 ± 0.7	734.4 ± 0.8	741.6 ± 0.8	748.3 ± 0.8	754.3 ± 0.9	760.1 ± 0.9	765.4 ± 1
323.15 K, x2 = 0.5007	717.7 ± 0.8	719.1 ± 0.7	722.6 ± 0.8	726.7 ± 0.8	734.1 ± 0.8	741 ± 0.8	747.2 ± 0.9	753 ± 0.9	758.5 ± 1
323.15 K, x2 = 0.5966	707.8 ± 0.8	708.9 ± 0.7	712.4 ± 0.8	716.7 ± 0.8	724.4 ± 0.8	731.5 ± 0.8	737.9 ± 0.9	744 ± 0.9	749.7 ± 1
323.15 K, x2 = 0.7928	679.1 ± 0.8	680.6 ± 0.8	684.7 ± 0.8	689.6 ± 0.8	698.3 ± 0.8	706.2 ± 0.9	713.2 ± 0.9	719.7 ± 1	725.7 ± 1
348.15 K, x2 = 0.1985	724.4 ± 0.7	725.2 ± 0.7	728.7 ± 0.7	732.9 ± 0.8	740.6 ± 0.8	747.6 ± 0.8	754 ± 0.9	760 ± 0.9	765.6 ± 1
348.15 K, x2 = 0.4136	708 ± 0.8	709 ± 0.7	712.8 ± 0.8	717.3 ± 0.8	725.6 ± 0.8	733 ± 0.8	739.7 ± 0.9	746 ± 0.9	751.9 ± 1
348.15 K, x2 = 0.5007	698.3 ± 0.8	700.1 ± 0.8	704 ± 0.8	708.6 ± 0.8	717.2 ± 0.8	724.9 ± 0.9	731.8 ± 0.9	738.2 ± 1	744.2 ± 1
348.15 K, x2 = 0.5966	687.2 ± 1	689.3 ± 0.8	693.5 ± 0.8	698.5 ± 0.8	707.5 ± 0.8	715.4 ± 0.9	722.6 ± 0.9	729.3 ± 1	735.5 ± 1
348.15 K, x2 = 0.7928	658.2 ± 0.8	659.5 ± 0.8	664.5 ± 0.8	670.2 ± 0.8	680.3 ± 0.8	689.2 ± 0.9	697.1 ± 0.9	704.3 ± 1	711 ± 1.1
373.15 K, x2 = 0.1985	706.6 ± 5	707.5 ± 3	711.7 ± 3	716.4 ± 3	725.2 ± 3	733 ± 3	740.1 ± 3	746.6 ± 3.1	752.7 ± 3.1
373.15 K, x2 = 0.4136	689.1 ± 5	690.2 ± 3	694.8 ± 3	699.9 ± 3	709.4 ± 3	717.7 ± 3	725.3 ± 3.1	732.3 ± 3.1	738.7 ± 3.1
373.15 K, x2 = 0.5007	–	681 ± 3	685.8 ± 3	691.2 ± 3	701 ± 3	709.7 ± 3	717.5 ± 3.1	724.6 ± 3.1	731.2 ± 3.1
373.15 K, x2 = 0.5966	–	669.9 ± 3	674.9 ± 3	680.7 ± 3	691 ± 3	700 ± 3	708 ± 3.1	715.3 ± 3.1	722.1 ± 3.1
373.15 K, x2 = 0.7928	–	638.3 ± 3	644.3 ± 3	651 ± 3	662.7 ± 3	672.8 ± 3.1	681.7 ± 3.1	689.7 ± 3.1	697 ± 3.1
423.15 K, x2 = 0.1985	668.8 ± 5	670.8 ± 3	676.3 ± 3	682.5 ± 3	693.7 ± 3	703.3 ± 3	711.9 ± 3.1	719.7 ± 3.1	726.8 ± 3.1
423.15 K, x2 = 0.4136	–	651.3 ± 3	657.6 ± 3	664.5 ± 3	676.6 ± 3	687.1 ± 3	696.3 ± 3.1	704.6 ± 3.1	712.1 ± 3.1
423.15 K, x2 = 0.5007	–	640.9 ± 3	647.6 ± 3	654.9 ± 3	667.6 ± 3	678.5 ± 3.1	688 ± 3.1	696.5 ± 3.1	704.2 ± 3.1
423.15 K, x2 = 0.5966	–	628.2 ± 3	635.3 ± 3	643.3 ± 3	656.9 ± 3	668.3 ± 3.1	678.2 ± 3.1	687.1 ± 3.1	695.2 ± 3.1
423.15 K, x2 = 0.7928	–	592.3 ± 3	601.2 ± 3	610.7 ± 3	626.4 ± 3	639.2 ± 3.1	650.3 ± 3.1	660 ± 3.1	668.8 ± 3.1
463.15 K, x2 = 0.1985	–	640.3 ± 5	647.5 ± 3	655.5 ± 3	669.1 ± 3	680.6 ± 3.1	690.5 ± 3.1	699.3 ± 3.1	707.4 ± 3.1
463.15 K, x2 = 0.4136	–	618.2 ± 5	626.5 ± 3	635.6 ± 3	650.7 ± 3	663.2 ± 3.1	673.9 ± 3.1	683.4 ± 3.1	692 ± 3.1
463.15 K, x2 = 0.5007	–	606.1 ± 5	615.2 ± 3	624.9 ± 3	640.9 ± 3	654 ± 3.1	665.1 ± 3.1	674.9 ± 3.1	683.6 ± 3.1
463.15 K, x2 = 0.5966	–	593 ± 5	602.9 ± 3	613.2 ± 3	630 ± 3	643.6 ± 3.1	655.2 ± 3.1	665.3 ± 3.1	674.4 ± 3.1
463.15 K, x2 = 0.7928	–	–	563.7 ± 3	577 ± 3	597.1 ± 3.1	612.8 ± 3.1	625.8 ± 3.1	637 ± 3.1	647 ± 3.2
